Values joined by “and” are separate entries in the source; they are usually repeats but may differ in a detail not shown here. Identical values can stand only once. Inconclusive results and toxic doses are left out. Rule as the data show it: active = T/C of 150% or more; inactive = T/C below 125%.
Test system: L1210 leukemia ip in BDF1 mice, survival T/C
Assay: NCI In Vivo Anticancer Drug Screen. Data for tumor model L1210 Leukemia (intraperitoneal) in B6D2F1 (BDF1) mice
Details: higher = longer survival
Procedure, shortened: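 Antitumor effect is assessed in tumor-bearing animals. Survival in the compound arm is compared with a vehicle-dosed control arm and expressed as their quotient.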

Measured: T/C

COc1cc2cc3c4cc(OC)c(OC)cc4cc[n+]3c(C)c2cc1OC (tested in a mixture with another compound)
inactive: endpoint: mean survival time, dose: 5.0 mg/kg/injection, schedule: Q01DX009 (ip), vehicle: saline 105 % of control and 113 % of control | endpoint: mean survival time, dose: 8.0 mg/kg/injection, schedule: Q01DX009 (ip), vehicle: Klucel (hydroxypropylcellulose) (HPC) 114 % of control | endpoint: mean survival time, dose: 10.0 mg/kg/injection, schedule: Q01DX009 (ip), vehicle: saline 105 % of control | endpoint: mean survival time, dose: 16.0 mg/kg/injection, schedule: Q01DX009 (ip), vehicle: clinical formulation 116 % of control | endpoint: mean survival time, dose: 16.0 mg/kg/injection, schedule: Q03HX024 (ip), vehicle: saline 107 % of control | endpoint: mean survival time, dose: 40.0 mg/kg/injection, schedule: Q01DX009 (ip), vehicle: saline 116 % of control | endpoint: mean survival time, dose: 64.0 mg/kg/injection, schedule: Q03HX024 (ip), vehicle: saline 113 % of control | endpoint: mean survival time, dose: 80.0 mg/kg/injection, schedule: Q01DX009 (ip), vehicle: saline 117 % of control | endpoint: mean survival time, dose: 100.0 mg/kg/injection, schedule: Q04DX003 (ip), vehicle: saline with Tween-80 116 % of control | endpoint: mean survival time, dose: 128.0 mg/kg/injection, schedule: Q08DX002 (ip), vehicle: saline 112 % of control | endpoint: mean survival time, dose: 150.0 mg/kg/injection, schedule: Q04DX003 (ip), vehicle: saline with Tween-80 117 % of control | endpoint: mean survival time, dose: 200.0 mg/kg/injection, schedule: Q04DX002 (ip), vehicle: saline 105 % of control | endpoint: mean survival time, dose: 256.0 mg/kg/injection, schedule: Q04DX003 (ip), vehicle: saline 118 % of control | endpoint: median survival time, dose: 8.0 mg/kg/injection, schedule: Q01DX009 (ip), vehicle: Klucel (hydroxypropylcellulose) (HPC) 108 % of control | endpoint: median survival time, dose: 8.0 mg/kg/injection, schedule: Q01DX009 (ip), vehicle: clinical formulation 110 % of control | endpoint: median survival time, dose: 8.0 mg/kg/injection, schedule: Q01DX009 (ip), vehicle: other 117 % of control | endpoint: median survival time, dose: 8.0 mg/kg/injection, schedule: Q01DX009 (ip), vehicle: water 111 % of control | endpoint: median survival time, dose: 8.0 mg/kg/injection, schedule: Q01DX009 (oral), vehicle: other 99 % of control and 113 % of control | endpoint: median survival time, dose: 8.0 mg/kg/injection, schedule: Q01DX009 (sc), vehicle: other 104 % of control | endpoint: median survival time, dose: 16.0 mg/kg/injection, schedule: Q01DX009 (ip), vehicle: Klucel (hydroxypropylcellulose) (HPC) 104 % of control | endpoint: median survival time, dose: 16.0 mg/kg/injection, schedule: Q01DX009 (ip), vehicle: clinical formulation 114 % of control | endpoint: median survival time, dose: 16.0 mg/kg/injection, schedule: Q01DX009 (oral), vehicle: other 98 % of control and 105 % of control | endpoint: median survival time, dose: 16.0 mg/kg/injection, schedule: Q01DX009 (oral), vehicle: saline 100 % of control | endpoint: median survival time, dose: 16.0 mg/kg/injection, schedule: Q01DX009 (sc), vehicle: other 104 % of control | endpoint: median survival time, dose: 25.0 mg/kg/injection, schedule: Q01DX009 (ip), vehicle: Klucel (hydroxypropylcellulose) (HPC) 98 % of control and 99 % of control | endpoint: median survival time, dose: 25.0 mg/kg/injection, schedule: Q01DX009 (ip), vehicle: other 98 % of control and 99 % of control | endpoint: median survival time, dose: 25.0 mg/kg/injection, schedule: Q01DX009 (ip), vehicle: saline 99 % of control and 100 % of control | endpoint: median survival time, dose: 32.0 mg/kg/injection, schedule: Q01DX001 (oral), vehicle: saline 95 % of control and 100 % of control | endpoint: median survival time, dose: 32.0 mg/kg/injection, schedule: Q01DX001 (sc), vehicle: saline 95 % of control | endpoint: median survival time, dose: 32.0 mg/kg/injection, schedule: Q01DX009 (oral), vehicle: other 115 % of control and 116 % of control | endpoint: median survival time, dose: 32.0 mg/kg/injection, schedule: Q01DX009 (oral), vehicle: saline 100 % of control | endpoint: median survival time, dose: 32.0 mg/kg/injection, schedule: Q01DX009 (sc), vehicle: other 100 % of control | endpoint: median survival time, dose: 32.0 mg/kg/injection, schedule: Q01DX009 (sc), vehicle: saline 95 % of control | endpoint: median survival time, dose: 50.0 mg/kg/injection, schedule: Q01DX009 (ip), vehicle: Klucel (hydroxypropylcellulose) (HPC) 100 % of control and 101 % of control | endpoint: median survival time, dose: 50.0 mg/kg/injection, schedule: Q01DX009 (ip), vehicle: other 95 % of control and 96 % of control | endpoint: median survival time, dose: 50.0 mg/kg/injection, schedule: Q01DX009 (ip), vehicle: saline 100 % of control and 101 % of control | endpoint: median survival time, dose: 64.0 mg/kg/injection, schedule: Q01DX001 (ip), vehicle: other 118 % of control | endpoint: median survival time, dose: 64.0 mg/kg/injection, schedule: Q01DX001 (oral), vehicle: other 100 % of control and 101 % of control | endpoint: median survival time, dose: 64.0 mg/kg/injection, schedule: Q01DX001 (oral), vehicle: saline 100 % of control | endpoint: median survival time, dose: 64.0 mg/kg/injection, schedule: Q01DX001 (sc), vehicle: other 114 % of control | endpoint: median survival time, dose: 64.0 mg/kg/injection, schedule: Q01DX009 (oral), vehicle: other 106 % of control and 114 % of control | endpoint: median survival time, dose: 64.0 mg/kg/injection, schedule: Q01DX009 (oral), vehicle: saline 100 % of control | endpoint: median survival time, dose: 64.0 mg/kg/injection, schedule: Q01DX009 (sc), vehicle: other 101 % of control | endpoint: median survival time, dose: 64.0 mg/kg/injection, schedule: Q01DX009 (sc), vehicle: saline 100 % of control | endpoint: median survival time, dose: 64.0 mg/kg/injection, schedule: Q04DX003 (sc), vehicle: saline 100 % of control | endpoint: median survival time, dose: 100.0 mg/kg/injection, schedule: Q01DX009 (ip), vehicle: Klucel (hydroxypropylcellulose) (HPC) 96 % of control and 97 % of control | endpoint: median survival time, dose: 100.0 mg/kg/injection, schedule: Q01DX009 (ip), vehicle: saline 105 % of control and 108 % of control | endpoint: median survival time, dose: 128.0 mg/kg/injection, schedule: Q01DX001 (oral), vehicle: other 100 % of control and 104 % of control | endpoint: median survival time, dose: 128.0 mg/kg/injection, schedule: Q01DX001 (oral), vehicle: saline 100 % of control | endpoint: median survival time, dose: 128.0 mg/kg/injection, schedule: Q01DX001 (sc), vehicle: other 100 % of control | endpoint: median survival time, dose: 128.0 mg/kg/injection, schedule: Q01DX001 (sc), vehicle: saline 100 % of control | endpoint: median survival time, dose: 128.0 mg/kg/injection, schedule: Q01DX009 (ip), vehicle: water 98 % of control | endpoint: median survival time, dose: 128.0 mg/kg/injection, schedule: Q01DX009 (oral), vehicle: other 98 % of control and 110 % of control | endpoint: median survival time, dose: 128.0 mg/kg/injection, schedule: Q01DX009 (oral), vehicle: saline 100 % of control | endpoint: median survival time, dose: 128.0 mg/kg/injection, schedule: Q01DX009 (sc), vehicle: other 100 % of control | endpoint: median survival time, dose: 128.0 mg/kg/injection, schedule: Q01DX009 (sc), vehicle: saline 105 % of control | endpoint: median survival time, dose: 200.0 mg/kg/injection, schedule: Q01DX009 (ip), vehicle: Klucel (hydroxypropylcellulose) (HPC) 95 % of control and 96 % of control | endpoint: median survival time, dose: 200.0 mg/kg/injection, schedule: Q01DX009 (ip), vehicle: other 117 % of control | endpoint: median survival time, dose: 200.0 mg/kg/injection, schedule: Q01DX009 (ip), vehicle: saline 95 % of control and 98 % of control | endpoint: median survival time, dose: 256.0 mg/kg/injection, schedule: Q01DX001 (oral), vehicle: other 99 % of control and 100 % of control | endpoint: median survival time, dose: 256.0 mg/kg/injection, schedule: Q01DX001 (oral), vehicle: saline 100 % of control | endpoint: median survival time, dose: 256.0 mg/kg/injection, schedule: Q01DX001 (sc), vehicle: other 100 % of control | endpoint: median survival time, dose: 256.0 mg/kg/injection, schedule: Q01DX009 (oral), vehicle: other 100 % of control and 110 % of control | endpoint: median survival time, dose: 256.0 mg/kg/injection, schedule: Q01DX009 (oral), vehicle: saline 110 % of control | endpoint: median survival time, dose: 256.0 mg/kg/injection, schedule: Q01DX009 (sc), vehicle: other 99 % of control | endpoint: median survival time, dose: 256.0 mg/kg/injection, schedule: Q01DX009 (sc), vehicle: saline 110 % of control | endpoint: median survival time, dose: 256.0 mg/kg/injection, schedule: Q04DX003 (sc), vehicle: saline 100 % of control | endpoint: median survival time, dose: 400.0 mg/kg/injection, schedule: Q01DX009 (ip), vehicle: Klucel (hydroxypropylcellulose) (HPC) 96 % of control and 97 % of control | endpoint: median survival time, dose: 512.0 mg/kg/injection, schedule: Q01DX001 (oral), vehicle: other 98 % of control and 101 % of control | endpoint: median survival time, dose: 512.0 mg/kg/injection, schedule: Q01DX001 (oral), vehicle: saline 100 % of control | endpoint: median survival time, dose: 512.0 mg/kg/injection, schedule: Q01DX001 (sc), vehicle: other 99 % of control | endpoint: median survival time, dose: 512.0 mg/kg/injection, schedule: Q01DX001 (sc), vehicle: saline 100 % of control | endpoint: median survival time, dose: 512.0 mg/kg/injection, schedule: Q08DX002 (ip), vehicle: other 99 % of control | endpoint: median survival time, dose: 1024.0 mg/kg/injection, schedule: Q01DX001 (oral), vehicle: other 98 % of control and 100 % of control

Source: PubChem BioAssay AID248 (DTP/NCI, 2004)
